According to patent publication US8192962B2, “Processes for detecting toxic substances” (Daikin Industries, Ltd., priority 2001, dated 2012):

System: Mitochondria-located protein genes
Experiment: DNA chip mRNA expression in yeast, mitochondria-located protein genes (Table 2)
Type: cell-based, Saccharomyces cerevisiae S288C
Conditions: cells incubated two hours with the chemical substance
In short: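 First, S288C yeast grown in YPD at 25° C. are dosed in log phase with one toxicant (growth-inhibiting, not lethal) for 2 h. Next, total RNA is extracted and poly(A) mRNA isolated and reverse-transcribed with Cy3/Cy5-dUTP. Finally, whole-genome chip fluorescence is read relative to unexposed cells.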

## Na2As [(1)]
Yeast gene YJR121W
  The level of expressed mRNA in the presence of chemical substance/The level of expressed mRNA in the absence of chemical substance: 0.9
Yeast gene YKL003C
  The level of expressed mRNA in the presence of chemical substance/The level of expressed mRNA in the absence of chemical substance: 1.1
Yeast gene YKL016C
  The level of expressed mRNA in the presence of chemical substance/The level of expressed mRNA in the absence of chemical substance: 1.5
Yeast gene YKL141W
  The level of expressed mRNA in the presence of chemical substance/The level of expressed mRNA in the absence of chemical substance: 1.6
Yeast gene YKL142W
  The level of expressed mRNA in the presence of chemical substance/The level of expressed mRNA in the absence of chemical substance: 1.8
Yeast gene YKL148C
  The level of expressed mRNA in the presence of chemical substance/The level of expressed mRNA in the absence of chemical substance: 0.9
Yeast gene YKL170W
  The level of expressed mRNA in the presence of chemical substance/The level of expressed mRNA in the absence of chemical substance: 1.0
Yeast gene YKL194C
  The level of expressed mRNA in the presence of chemical substance/The level of expressed mRNA in the absence of chemical substance: 0.9
Yeast gene YKR066C
  The level of expressed mRNA in the presence of chemical substance/The level of expressed mRNA in the absence of chemical substance: 0.9
Yeast gene YLL041C
  The level of expressed mRNA in the presence of chemical substance/The level of expressed mRNA in the absence of chemical substance: 1.1
Yeast gene YLR038C
  The level of expressed mRNA in the presence of chemical substance/The level of expressed mRNA in the absence of chemical substance: 2.3
Yeast gene YLR259C
  The level of expressed mRNA in the presence of chemical substance/The level of expressed mRNA in the absence of chemical substance: 0.7
Yeast gene YLR295C
  The level of expressed mRNA in the presence of chemical substance/The level of expressed mRNA in the absence of chemical substance: 1.4
Yeast gene YLR304C
  The level of expressed mRNA in the presence of chemical substance/The level of expressed mRNA in the absence of chemical substance: 0.7
Yeast gene YLR348C
  The level of expressed mRNA in the presence of chemical substance/The level of expressed mRNA in the absence of chemical substance: 1.1
Yeast gene YLR395C
  The level of expressed mRNA in the presence of chemical substance/The level of expressed mRNA in the absence of chemical substance: 1.8
Yeast gene YML054C
  The level of expressed mRNA in the presence of chemical substance/The level of expressed mRNA in the absence of chemical substance: 1.5
Yeast gene YML120C
  The level of expressed mRNA in the presence of chemical substance/The level of expressed mRNA in the absence of chemical substance: 1.1
Yeast gene YML129C
  The level of expressed mRNA in the presence of chemical substance/The level of expressed mRNA in the absence of chemical substance: 1.1
Yeast gene YMR023C
  The level of expressed mRNA in the presence of chemical substance/The level of expressed mRNA in the absence of chemical substance: 1.4
Yeast gene YMR035W
  The level of expressed mRNA in the presence of chemical substance/The level of expressed mRNA in the absence of chemical substance: 1.2
Yeast gene YMR083W
  The level of expressed mRNA in the presence of chemical substance/The level of expressed mRNA in the absence of chemical substance: 1.4
Yeast gene YMR089C
  The level of expressed mRNA in the presence of chemical substance/The level of expressed mRNA in the absence of chemical substance: 0.8
Yeast gene YMR152W
  The level of expressed mRNA in the presence of chemical substance/The level of expressed mRNA in the absence of chemical substance: 0.9
Yeast gene YMR203W
  The level of expressed mRNA in the presence of chemical substance/The level of expressed mRNA in the absence of chemical substance: 0.8
Yeast gene YMR267W
  The level of expressed mRNA in the presence of chemical substance/The level of expressed mRNA in the absence of chemical substance: 0.8
Yeast gene YNL055C
  The level of expressed mRNA in the presence of chemical substance/The level of expressed mRNA in the absence of chemical substance: 1.1
Yeast gene YNL071W
  The level of expressed mRNA in the presence of chemical substance/The level of expressed mRNA in the absence of chemical substance: 0.9
Yeast gene YNL073W
  The level of expressed mRNA in the presence of chemical substance/The level of expressed mRNA in the absence of chemical substance: 0.8
Yeast gene YNL104C
  The level of expressed mRNA in the presence of chemical substance/The level of expressed mRNA in the absence of chemical substance: 1.1
Yeast gene YNL256W
  The level of expressed mRNA in the presence of chemical substance/The level of expressed mRNA in the absence of chemical substance: 0.7
Yeast gene YOL096C
  The level of expressed mRNA in the presence of chemical substance/The level of expressed mRNA in the absence of chemical substance: 1.1
Yeast gene YOR020C
  The level of expressed mRNA in the presence of chemical substance/The level of expressed mRNA in the absence of chemical substance: 1.4
Yeast gene YOR037W
  The level of expressed mRNA in the presence of chemical substance/The level of expressed mRNA in the absence of chemical substance: 1.0
Yeast gene YOR100C
  The level of expressed mRNA in the presence of chemical substance/The level of expressed mRNA in the absence of chemical substance: 1.3
Yeast gene YOR130C
  The level of expressed mRNA in the presence of chemical substance/The level of expressed mRNA in the absence of chemical substance: 0.8
Yeast gene YOR142W
  The level of expressed mRNA in the presence of chemical substance/The level of expressed mRNA in the absence of chemical substance: 1.0
Yeast gene YOR150W
  The level of expressed mRNA in the presence of chemical substance/The level of expressed mRNA in the absence of chemical substance: 1.7
Yeast gene YOR176W
  The level of expressed mRNA in the presence of chemical substance/The level of expressed mRNA in the absence of chemical substance: 0.7
Yeast gene YOR187W
  The level of expressed mRNA in the presence of chemical substance/The level of expressed mRNA in the absence of chemical substance: 1.0
Yeast gene YOR316C
  The level of expressed mRNA in the presence of chemical substance/The level of expressed mRNA in the absence of chemical substance: 0.7
Yeast gene YPL040C
  The level of expressed mRNA in the presence of chemical substance/The level of expressed mRNA in the absence of chemical substance: 1.1
Yeast gene YPL134C
  The level of expressed mRNA in the presence of chemical substance/The level of expressed mRNA in the absence of chemical substance: 1.5
Yeast gene YPL135W
  The level of expressed mRNA in the presence of chemical substance/The level of expressed mRNA in the absence of chemical substance: 0.9
Yeast gene YPL215W
  The level of expressed mRNA in the presence of chemical substance/The level of expressed mRNA in the absence of chemical substance: 1.1
Yeast gene YPL262W
  The level of expressed mRNA in the presence of chemical substance/The level of expressed mRNA in the absence of chemical substance: 1.0
Yeast gene YPR024W
  The level of expressed mRNA in the presence of chemical substance/The level of expressed mRNA in the absence of chemical substance: 0.7
Yeast gene YPR037C
  The level of expressed mRNA in the presence of chemical substance/The level of expressed mRNA in the absence of chemical substance: 1.2
Yeast gene YPR047W
  The level of expressed mRNA in the presence of chemical substance/The level of expressed mRNA in the absence of chemical substance: 1.0
Yeast gene YPR134W
  The level of expressed mRNA in the presence of chemical substance/The level of expressed mRNA in the absence of chemical substance: 1.1
